Results as given in US20180037605A1, “SYNTHETIC PEPTIDES AND ENZYMATIC FORMATION OF INTRACELLULAR HYDROGELS” (BRANDEIS UNIVERSITY, priority 2015, published 2018).
Values after ≈ are worked out from the molar mass of the structure shown. Like-named read-outs stand apart in the source and are kept apart here.

Tests used:
MCF-7 cells = experiment: MTT cell viability, MCF-7; assay type: cell-based; details: third day (72 h)
Method: (§3) The cells were seeded in exponential growth phase in a 96 well plate at a concentration of 1×10^4 cell/well with 100 μL of culture medium. Cells were allowed to attach for 24 hours at 37° C., 5% CO2 and then the culture medium was removed with the help of vacuum pump. Culture medium containing the precursors in gradient concentrations was added to each well (0 μM as control). 10 μL of 5 mg/mL MTT ((3-(4,5-Dimethylthiazol-2-yl)-2,5-diphenyltetrazolium bromide) was added to each well after 24 hours, 48 hours, and 72 hours incubation. After 4 hours incubation of the plated cells in dark place, 100 μL 10% SDS with 0.01 M HCl was added to each well to dissolve the purple formazan and to stop the reduction reaction. 24 hours later, the absorbance of the solution at 595 nm was finally measured with a DTX 880 Multimode Detector.

T98G cells = experiment: MTT cell viability, T98G; assay type: cell-based
Method: as §3

HeLa cells [1] = experiment: MTT cell viability, HeLa; assay type: cell-based; details: third day (72 h)
Method: D-7 and D-10 (FIG. 12A), the enantiomers of L-7 and L-10, were prepared as described in Example 3. HeLa and SKOV3 cells were used in an MTT assay for assessing cytotoxicity of the peptides against these cancer cell lines.

HepG2 cells = experiment: MTT cell viability, HepG2; assay type: cell-based; details: third day (72 h)
Method: as §3

A2780cis cells [2] = details: for IC50, A2780cis: third day (72 h)
HS-5 cells [3] = details: 72 h
Method: as §3

Saos-2 cells = experiment: MTT cell viability, Saos-2; assay type: cell-based; details: third day (72 h)
Method: as §3

A375 cells = experiment: MTT cell viability, A375; assay type: cell-based; details: third day (72 h)
Method: as §3

MES-SA cells = experiment: MTT cell viability, MES-SA; assay type: cell-based; details: third day (72 h)
Method: as §3

HS-5 cells [4] = experiment: MTT cell viability, HS-5 stromal cells; details: for inhibition of HS-5 cells: 20 μM (D-10) and 50 μM (L-10)
Method: as §3

HCC1937 cells = experiment: MTT cell viability, HCC1937; assay type: cell-based; details: third day (72 h)
[5] = system: co-cultured HS-5 and A2780cis cells; experiment: Cell viability of co-cultured HS-5 and A2780cis cells; assay type: cell-based; details: for cell viability of co-cultured HS-5 and A2780cis cells: D-10 37 μg/mL
Method: (§1) 5×10^3 of SKOV3 cells (or A2780cis) and 5×10^3 HS-5 cells per well were seeded together and co-cultured in DMEM medium. Based on the results in FIG. 22, the concentrations of L-10 and D-10 at 73 and 37 μg/mL, respectively, were chosen. […] The inhibitory activities of L-10 and D-10 towards the co-culture agree well with their cytotoxicity against A2780cis, SKOV3, and H-5 cells. […] For example, on the first day, the cell viabilities of co-cultured HS-5 and SKOV3 cells and co-cultured HS-5 and A2780cis cells treated by D-10 (37 μg/mL) were 79% and 80%, respectively. While on the third day, the cell viabilities dropped to 44% and 57%, respectively. […] Contrary to the case of D-10, the efficacies of L-10 were almost the same between day two and day three (FIG. 25A), which agreed with the lower in vivo stability of L-10 than that of D-10.

U87MG cells = experiment: MTT cell viability, U87MG; assay type: cell-based
Method: as §3

MES-SA/D×5 cells = experiment: MTT cell viability, MES-SA/D×5; assay type: cell-based; details: third day (72 h)
Method: as §3

PC-12 cells [6] = experiment: MTT cell viability, PC-12 neuronal cells; assay type: cell-based, rat; details: for inhibition of PC-12 cells: 20 μM (D-10) and 50 μM (L-10); for IC50, PC-12: third day (72 h)
Method: as §3

[7] = Systemic toxicity after intravenous injection in mice; details: 5 to 20 mg/kg, after 7 days
in vitro = details: human
Method: as §3

A2780 cells = experiment: MTT cell viability, A2780; assay type: cell-based; details: for IC50, A2780: third day (72 h)
SKOV3 cells [8] = details: for IC50, SKOV3 / inhibition of SKOV3 cells by mixture with CP: 72 h
Method: SKOV3 cells were seeded in exponential growth phase in a 96 well plate at a concentration of 1×10^4 cell/well with 100 μL of McCoy's 5A medium modified supplemented with 10% fetal bovine serum (FBS), 100 U/mL penicillin and 100 μg/ml streptomycin. The cells were allowed to attach to the wells for 24 hours at 37° C., 5% CO2. The culture medium was removed and 100 μL culture medium containing compounds (immediately diluted from fresh prepared stock solution of 10 mM) at gradient concentrations (0 μM as the control) was placed into each well. McCoy's 5A medium modified was regarded as blank. After culturing at 37° C., 5% CO2 for 24 hours, 48 hours, and 72 hours, 10 μL of 5 mg/mL MTT (3-(4,5-Dimethylthiazol-2-yl)-2,5-diphenyltetrazolium bromide) was added to each well, and the plated cells were incubated in dark place for 4 hours. 100 μL 10% SDS with 0.01 M HCl was added to each well to stop the reduction reaction and to dissolve the purple formazan. After incubation of the cells at 37° C. for overnight, the OD at 595 nm of the solution was measured in a microplate reader.
as §3

SKOV3 cells [9] = experiment: LC-MS of cell lysates and culture medium, SKOV3; assay type: cell-based; details: for cumulative intracellular concentration of precursor and hydrogelator relative to incubation concentration: 4 hours incubation; for Ratio of hydrogelator to precursor after 4 hours / Hydrogelator (12) intracellular concentration / Precursor (10) intracellular concentration: SKOV3 cell lysates, 20 μm D-10 or 50 μm L-10; for Hydrogelator (12) intracellular concentration / Precursor (10) intracellular concentration: 4 hours, 37° C.
Method: (§2) After confirming that CES converts the precursor L-10 or D-10 into the hydrogelator L-12 or D-12, the stability of the precursors (L-10 or D-10) when incubated with the ovarian cancer cells was determined. After culturing the precursors with SKOV3 or A2780cis cells at 37° C. for 4 hours, the cell lysates and culture medium were collected for liquid chromatography-mass spectrometry (LC-MS) analysis and the intracellular concentrations of the precursors, the hydrogelators, and the relevant proteolyzed products were determined. After incubation with SKOV3 or A2780cis cells for 4 hours, more than 85% of the precursors (L-10 or D-10) turned into the corresponding hydrogelators (L-12 or D-12; see Table 1 below).

PC-12 cells [10] = details: literature (Mendonca et al.); cited from earlier work
SKOV3 cells [11] = details: read-out: IC50 of cisplatin; literature value (Oumzil et al.) used as comparison for SKOV3 inhibition; cited from earlier work
HS-5 cells [12] = details: literature (Mendonca et al.); cited from earlier work
HeLa cells [13] = details: 200 μM, 24 hours
HeLa cells [14] = system: HeLa cells
Method: The HeLa cell line CCL-2™ was purchased from the American Type Culture Collection (ATCC, Manassas, Va., USA).
The following formula was used to calculate the intracellular concentration of the peptides.
Intracellular concentration=(c*300 uL)/(cell number*4*10^−9 cm^3)
where c=(fluorescence−15406.76945)/74174.36908. An average size for the common cells used in cell culture (HeLa) is 15-20 microns in diameter for a suspended cell (volume 4/3πr^3=4000 μm^3 or 4×10^−9 cm^3) (Moran et al., Cell 141:1262 (2010), which is hereby incorporated by reference in its entirety). Methanol was used to break the cell membrane and fully dissolve compounds 1-t, 2-t, and 3.
To quantify the intracellular concentration of the D-peptide derivatives, the procedure illustrated in FIG. 9A was used to determine the cellular uptake of 1-t, 1, and 2-t after treating HeLa cells with these molecules, respectively. […] The “uptake concentration (Cu)” of 1-t or 1 is the sum of 3 and 1-t (or 1) inside the cells.

A2780cis cells [15] = experiment: LC-MS of cell lysates, A2780cis; assay type: cell-based; details: 100 μm D-10
Method: as §2

[16] = mouse, in vivo, 20 mg/kg
[17] = system: co-cultured HS-5 and SKOV3 cells; experiment: Cell viability of co-cultured HS-5 and SKOV3 cells; assay type: cell-based; details: D-10 37 μg/mL
Method: as §1

[18] = 200 μM in culture medium, 24 hours
[19] = combination of D-10 and CP, 72 hours

Structure (SMILES)	IC50, MCF-7 (MCF-7 cells) [µg/mL]	IC50, HeLa (HeLa cells [1]) [µg/mL]	IC50, HepG2 (HepG2 cells) [µg/mL]	IC50, A2780cis (A2780cis cells [2]) [µg/mL]	IC50, HS-5 (HS-5 cells [3])	IC50, Saos-2 (Saos-2 cells) [µg/mL]	IC50, A375 (A375 cells) [µg/mL]	IC50, MES-SA (MES-SA cells) [µg/mL]	inhibition of HS-5 cells (HS-5 cells [4])	IC50, HCC1937 (HCC1937 cells) [µg/mL]	IC50, MES-SA/D×5 (MES-SA/D×5 cells) [µg/mL]	inhibition of PC-12 cells (PC-12 cells [6])	IC50, PC-12 (PC-12 cells [6])	effect on weight and organ index of mice [7]	IC50, A2780 (A2780 cells) [µg/mL]	IC50, SKOV3 (SKOV3 cells [8]) [µg/mL]	cumulative intracellular concentration of precursor and hydrogelator relative to incubation concentration (SKOV3 cells [9])	Ratio of hydrogelator to precursor after 4 hours (SKOV3 cells [9])	Hydrogelator (12) intracellular concentration (SKOV3 cells [9]) [μm]	Precursor (10) intracellular concentration (SKOV3 cells [9]) [μm]	further results
O=C(CCC(=O)OCCNC(=O)[C@H](Cc1ccccc1)NC(=O)[C@H](Cc1ccccc1)NC(=O)Cc1ccc2ccccc2c1)NCCS(=O)(=O)O [L-10]	28 (≈ 38.3 µM)	53 (≈ 72.5 µM)	97 (≈ 133 µM)	39 (≈ 53.4 µM)	above 73 μg/mL	80 (≈ 109 µM)	94 (≈ 129 µM)	40 (≈ 54.7 µM)	hardly inhibited	29 (≈ 39.7 µM)	322 (≈ 441 µM)	hardly inhibited	above 73 μg/mL	hardly affected	49 (≈ 67 µM)	46 (≈ 62.9 µM)	about 10 fold	6.95	431	62	cell viability of T98G (T98G cells; 365 μg/mL of L-10): ~60%; cytotoxicity toward T98G (T98G cells; at or below 146 μg/mL, 72 h): little cytotoxicity; inhibition of co-cultured HS-5 and A2780cis cells ([5]; L-10 73 μg/mL, third day): about 57%; cell viability of U87MG (U87MG cells; 365 μg/mL of L-10): about 70%; cytotoxicity toward U87MG (U87MG cells; at or below 146 μg/mL, 72 h): little cytotoxicity; viability at 3 day, 73 μg/mL (in vitro): ~80%; inhibition of SKOV3 cells by mixture with CP (SKOV3 cells [8]; 37 μg/mL): ~87%
N.N.[Cl][Pt][Cl] [cisplatin, reference compound]																					inhibition of PC-12 cells (PC-12 cells [10]): significantly inhibiting; inhibition of A2780cis cells (A2780cis cells [2]; 37 μg/mL, third day): about 98%; IC50 (SKOV3 cells [11]): 35 µM; HS-5 cells killed / inhibited (HS-5 cells [4]; 37 μg/mL, third day): ~100%; inhibition of HS-5 cells (HS-5 cells [12]): significantly inhibiting; inhibition of SKOV3 cells (SKOV3 cells [8]; 37 μg/mL, third day): 90%; inhibition of SKOV3 cells (SKOV3 cells [8]; CP 6 μg/mL alone, 72 hours): 48%; cell death of SKOV3 cells (SKOV3 cells [8]; CP 6 μg/mL alone, 72 hours (control compound experiment)): about 40%
O=C(CCC(=O)NCCS(=O)(=O)O)NCCNC(=O)[C@@H](Cc1ccccc1)NC(=O)[C@@H](Cc1ccccc1)NC(=O)CCNc1ccc([N+](=O)[O-])c2nonc12 [2-t]																					stability inside cells (HeLa cells [13]): remained intact inside cells; Cu (HeLa cells [14]; [18]): 800 µM; uptake concentration (Cu) / intracellular concentration (HeLa cells [14]; [18]): 0.8 mM; intracellular concentration after first wash (HeLa cells [14]; 200 μM, 24 hour incubation): 0.6 mM; intracellular concentration after washing five times with PBS buffer (HeLa cells [14]; 200 μM, 24 hour incubation): 0.08 mM; decrease of intracellular concentration by each wash (HeLa cells [14]; 200 μM, 24 hour incubation, PBS wash): about 25%; uptake concentration relative to incubation (extracellular) concentration (HeLa cells [14]; 200 μM, 24 hours): 4 fold
O=C(CCC(=O)OCCNC(=O)[C@@H](Cc1ccccc1)NC(=O)[C@@H](Cc1ccccc1)NC(=O)Cc1ccc2ccccc2c1)NCCS(=O)(=O)O [D-10]	25 (≈ 34.2 µM)	27 (≈ 36.9 µM)	88 (≈ 120 µM)	36 (≈ 49.3 µM)	50 µg/mL (≈ 68.4 µM)	44 (≈ 60.2 µM)	38 (≈ 52 µM)	31 (≈ 42.4 µM)	hardly inhibited	26 (≈ 35.6 µM)	163 (≈ 223 µM)	hardly inhibited	62 µg/mL (≈ 84.8 µM)	hardly affected	37 (≈ 50.6 µM)	31 (≈ 42.4 µM)	about 5 fold	6.75	108	16	IC50, T98G (T98G cells; 72 hours incubation): 145 µg/mL (≈ 198 µM); inhibition of A2780cis cells by combination with CP (A2780cis cells [2]; [19]): 70%; Ratio of hydrogelator to precursor after 4 hours (A2780cis cells [15]): 8.43; Hydrogelator (12) intracellular concentration (A2780cis cells [15]; 4 hours, 37° C.): 582 μm; Precursor (10) intracellular concentration (A2780cis cells [15]; 4 hours, 37° C.): 69 μm; cell viability of co-cultured HS-5 and A2780cis cells ([5]; first day): 80%; cell viability of co-cultured HS-5 and A2780cis cells ([5]; third day): 57%; IC50, U87MG (U87MG cells; 72 hours incubation): 126 µg/mL (≈ 172 µM); tolerability [16]: well tolerated; viability at 3 day, 37 μg/mL (in vitro): ~80%; cell viability of co-cultured HS-5 and SKOV3 cells ([17]; first day): 79%; cell viability of co-cultured HS-5 and SKOV3 cells ([17]; third day): 44%; viability of A2780 cells, combination with CP (A2780 cells; [19]): 9%; inhibition of SKOV3 ovarian cancer cells (SKOV3 cells [8]; 48 h, 50 μM): over 70%; inhibition of SKOV3 cells by mixture with CP (SKOV3 cells [8]; 15 μg/mL): about 74%; viability of SKOV3 cells (SKOV3 cells [8]; human, 72 hours, 37 μg/mL): 10%
